According to patent US7482008B1, “Human T cell reactive feline protein (TRFP) isolated from house dust and uses therefor” (Merck Patent GmbH, priority 1989, dated 2009):

Experiments:
[1] = system: T cells from cat-allergic patients; assay: Secondary proliferation assay of T cells primed with TRFP, peptide YXZ or peptide YZX; assay type: cell-based, human
Protocol: The human cat allergic T cell response to peptides produced as above was examined. […] Peptide YZX was cleaved with thrombin as described in Example 25. Viable cells were then purified by Ficoll-Hypaque centrifugation and cultured for 2 additional weeks in RPMI-1640/5% AB serum containing 5 units recombinant human IL-2/ml and 5 units recombinant human IL-4/ml. The resting T cells were then tested in a secondary proliferation assay using a 96 well microtiter plate to assess T cell responses to various TRFP proteins or peptides (TRFP antigens). For assay, 2×10^4 resting T cells were cultured for 3 days at 37° C. in the presence of 2×10^4 autologous Epstein-Barr virus transformed B cells (25,000 Rads) as antigen presenting cells with various concentrations of antigen in 200 μl per well. Each well then received 1 μCi tritiated thymidine for 16 hours. The counts incorporated were collected onto glass fiber filters and processed for liquid scintillation counting. The stimulation indices for responses to each antigen were then calculated as the maximum CPM in response to antigen divided by the medium control CPM. A stimulation index of 2.5 was considered to be a positive T cell response. A summary of the results of 3 such experiments (patients 522, 519, and 386 is shown in FIG. 35a, FIG. 35b and FIG. 35c). As compared to the experiments shown in FIGS. 35a and 35b in the experiment shown in […], Fel-1.4 (chain 1, amino acid residues 6-17) was substituted for Fel-1.2 (chain 1, amino acid residues 1-17) and Fel-33.3 (chain 2, amino acid residues 26-40) was substituted for Fel-18 (chain 2, amino acid residues 23-48) in order to more closely resemble the constituent amino acids of peptides X and Z. In addition, in this experiment one peptide derived from the Y-Z junction of peptide YZX (amino acid residues 50-55 from chain 1 of TRFP and amino acid residues 14-19 from chain 2 of TRFP) and one peptide derived from the Z-X junction of peptide YZX (amino acid residues 34-39 of chain 2 of TRFP and amino acid residues 7-12 of chain 1 of TRFP) were synthesized and tested. These junction peptides were produced in order to determine whether these areas of peptide YZX produce a non-native epitope when formed in the peptide.

[2] = system: basophils; assay: Histamine release from basophils in heparinized whole blood of cat allergic patients; assay type: cell-based, human; details: eight cat allergic patients
Protocol: The histamine release assay used for these studies is based on the detection of an acylated derivative of histamine using a specific monoclonal antibody (Morel, A. M. and Delaage, M. A.; 1988, J. Allergy Clin. Immunol. 82:646-654.) This assay was performed as two separate protocols: 1) the release of histamine from basophils present in heparinized whole blood in the presence of different concentrations of antigens and 2) the actual assaying of histamine present in the supernates of the release reactions following cell removal by centrifugation. The reagents for this histamine radioimmunoassay are supplied commercially as a kit by Amac Inc. (Westbrook, Me.).
Whole blood was drawn from cat allergic patients using heparinized syringes or vacutainers. […] The buffer control consisted of whole blood with just buffer and no added antigen. The release reactions were then carried out at 37° C. for 30 minutes. After this incubation the tubes were centrifuged at 1500 RPM for 3 minutes and the supernates were carefully removed. It was important to spin gently so that there would be no cell lysis giving misleading results. […]
For the RIA analysis, a 50 μl aliquot of the release supernatant was diluted 1:4 with Histamine release buffer (supplied with the kit from Amac Inc.) Then 100 μl of each diluted supernatant was added to the tubes containing the acylation reagent (a lyophilized powder). […] Then they were counted on a gamma counter (Cobra 5005, Beckman Inc.) for two minutes/tube.
Following the quantitation of ^125I label/tube the standard curve is generated from the histamine standard counts and plotted on semi-log paper. Because this is a competition assay, with labelled ^125I tracer competing with the standards or unknowns for cell supernatants, the lower the recorded counts the greater the amount of cold acylated histamine in the binding assay. The data points were then generated by reading off the values on the plotted standard curve of counts versus histamine concentration (in nM).

[3] = system: human IgE (cat allergic patient plasma); assay: Direct binding ELISA of human IgE to coated antigen; details: for specific IgE binding: direct binding ELISA or similar protocol
Protocol: The basic format of these ELISA assays was a direct binding assay wherein the antigen was coated onto the wells of a 96 well microtitre dish and then antibodies in solution are added and assayed for the binding capacity. The protocol for these assays was as follows:
The peptides were conjugated to HSA (human serum albumin) by two different methods based on their chemical structure. […] Both conjugates were filter purified and dialyzed against PBS. In the ELISA assay, the unbound coating antigens were removed and the wells were blocked with 0.5% gelatin in PBS, 200 μl/well for 2 hours at room temperature. The antibody solution was a pool of plasma samples from 20 patients that were skin test positive for commercial cat extract which was serially diluted with PBS-Tween 20 (PBS with 0.05% nonionic detergent Tween-Sigma, St. Louis Mo.) and 100 μl/well was added and incubated overnight at 4° C. (plasma dilutions are tested in duplicate). […] The second antibody (biotinylated goat anti-Human IgE, 1:1000 Kirkegaard & Perry Laboratories Inc. Gaithersburg, Md.), was added at 100 μl/well for one hour at room temperature. This solution was removed and streptavidin-HRPO, 1:1000, (Southern Biotechnology Associates, Inc., Birmingham, Ala.) was then added at 100 μl/well for one hour at room temperature (all wells were washed three times with PBS-Tween between each incubation step). TMB Membrane Peroxidase Substrate system (Kirkegaard & Perry Laboratories) was freshly mixed, and added at 100 μl/well. The color was allowed to develop for 2-5 minutes. The reaction was stopped by the addition of […] of 1 M phosphoric acid. Plates are read on a Microplate EL 310 Autoreader (Biotek Instruments, Winooski, Vt.) with a 450 nm filter. The absorbance levels of duplicate wells were averaged.

[4] = patient 386, T cells primed with YZX
[5] = patient 386, T cells primed with native TRFP
[6] = patient 519, cells primed with peptide YXZ
[7] = patient 519, native TRFP-primed T cells
[8] = patient 522, T cells primed with YXZ
[9] = patient 522, T cells primed with native TRFP, SI 2.5 positive

In the case of “TRFP: human T cell reactive feline protein affinity purified from house dust; two covalently linked chains”, the T cell response [1, 4] is reported as “respond at a similar level or better”, the T cell response [1, 5] is reported as “positively respond” and the T cell response [1, 6] is reported as “positive responses”. The T cell response [1, 7] was “respond”, the T cell response [1, 8] was “respond less well” and the T cell response [1, 9] was “positively respond”. For the same substance, the histamine release [2] was “at all but the lowest concentration, gives a clear release signal”, the “Positive Binding” value ([3]; ELISA, percent of cat allergic patients with positive IgE binding) was 100% and the “absorbance reading, IgE binding” value ([3]; pooled plasma, first dilution 1:2 in PBS) was 0.65.
With “peptide Y: amino acid residues 29-55 from chain 1 of TRFP (SEQ. ID. NO: 18) (KALPVVLENARILKNCVDAKMTEEDKE)” the T cell response [1, 4] was “respond at a similar level or better”, the T cell response [1, 5] was “positively respond” and the T cell response [1, 6] was “positive responses”. The T cell response [1, 7] was “respond”, the T cell response [1, 8] was “respond at a similar level or better” and the T cell response [1, 9] was “positively respond”. The histamine release [2] was “no discernible histamine release”, the “specific IgE binding” value [3] was “do not demonstrate any specific IgE binding” and the “specific IgE binding” value ([3]; listed as Fel 30-4) was “No direct IgE binding”.
“NARILKNCVDAKMTEEDKE [Fel 4, TRFP chain 1 amino acids 37-55]” was tested, and the T cell response [1, 6] was “positive responses” and the T cell response [1, 8] was “respond at a similar level or better”.
With “peptide X: amino acid residues 7-30 from chain 1 of TRFP (SEQ. ID. NO: 17); Table 2 lists Fel 8-3 as 7-33 (KRDVDLFLTGTPDEYVEQVAQYKALPV)” the T cell response [1, 4] was “respond at a similar level or better”, the T cell response [1, 5] was “positively respond” and the T cell response [1, 6] was “positive responses”. For the same substance, the T cell response [1, 8] was “respond at a similar level or better”, the histamine release [2] was “no discernible histamine release” and the “specific IgE binding” value [3] was “do not demonstrate any specific IgE binding”. For the same substance, the “specific IgE binding” value ([3]; listed as Fel 8-3) was “No direct IgE binding”.
